Where two headings read alike, the source gives them in different places.
Key:
[1] = tested on: metastatic breast cancer; assay: ^18F-FDG-PET in breast cancer patients with metastatic disease; assay type: in vivo, human
Description: ^18F-FDG-PET in breast cancer patients with metastatic disease. Approval was obtained from the Albert Einstein College of Medicine Cancer Center Protocol Review Committee and the Montefiore Medical Center Institutional Review Board. Retrospectively, five consecutive patients with breast cancer and metastatic disease shown on ^18F-FDG-PET scanning were evaluated. After more than 4 hours of fasting, the patients were administered 3.5 mCi of ^18F-FDG, and rested during an uptake period of 45 minutes. The patients then underwent a whole-body scan on the CPET scanner. The scanning protocol consisted of 6 minutes of emission and two rotations of a ^137Cs source for transmission per bed position, and approximately six bed positions. Images were corrected for attenuation and reconstructed with the iterative method. To reduce volume averaging, a small round region of interest 12 pixels in size was drawn in the center of the tumor and in the center of normal liver. The diameter of the region was 14 mm. Standardized uptake values (SUVs) were calculated for all regions of interest by the formula SUV=(activity in tissue [mCi/g]) divided by (injected activity [mCi]/body weight [g]). The tumor to liver ratios (TLRS) were calculated by the formula TLR=SUV of tumor divided by SUV of liver.

[2] = 70 Kg person, cited from earlier work
[3] = tested on: mammary tumors of MMTV-neuT mice; assay: PET imaging of MMTV-neuT mice with ^18F-FDG; assay type: in vivo, mouse; details: PET 1 hour after i.p. 0.5-2.0 mCi
Description: Animals. All procedures involving mice were conducted in accordance with the National Institutes of Health regulations concerning the use and care of experimental animals. The study of mice was approved by the Albert Einstein College of Medicine (AECOM) Animal Use Committee. Transgenic mice expressing the polyoma middle T antigen (PyMT) in the mammary epithelium under the control of mouse mammary tumor virus (MMTV) long terminal repeat were provided by Dr. W. J. Muller (McMaster University, Ontario, Canada) and then bred at AECOM. At the age of 10 weeks these mice have multiple mammary tumors 0.15-0.17 cm in diameter. In mice older than 18 weeks the tumors are more than 1 cm in diameter. MMTV-NeuT mice (Muller et al. 1988), which carry erbB-2 (Neu), one of the better known human breast cancer oncogenes, were purchased from Jackson Laboratories. MMTV-NeuT mice were obtained as retired breeders and some of them developed mammary tumors at the age of 5 months, whereas others remained-tumor free until 6-7 months of age. C3H/B6 female mice lacking the PyMT transgene were used as healthy controls in therapy experiments. […]
Imaging of mice with ^18F-FDG. […] The tumor to liver ratios (TLRs) were calculated by the formula TLR=counts per pixel in tumor divided by counts per pixel in liver.

[4] = Patient 1, metastasis to sub-carinal lymph node, 3.5 mCi
[5] = Patient 2, metastasis to the left axilla, 3.5 mCi
[6] = Patient 4, metastasis to the right axilla, 3.5 mCi

O=C[C@H]([18F])[C@@H](O)[C@H](O)[C@H](O)CO [^18F-FDG, ^18F-2-deoxy-2-fluoro-D-glucose]
SUV Metastasis [1, 4]: 5.3
TLR [1, 4]: 1.89
SUV Normal liver ([1]; Patient 1, 3.5 mCi): 2.8
SUV Metastasis [1, 5]: 7.4
TLR [1, 5]: 3.36
SUV Normal liver ([1]; Patient 2, 3.5 mCi): 2.3
SUV Metastasis ([1]; Patient 3, liver metastasis (10 cm×6 cm×4.5 cm), 3.5 mCi): 5.8
TLR ([1]; Patient 3, liver metastasis, 3.5 mCi): 2.23
lowest SUV ([1]; Patient 3, tumor with a diameter of 2 cm): 3.8
SUV Normal liver ([1]; Patient 3, 3.5 mCi): 2.6
SUV Metastasis [1, 6]: 5.3
TLR [1, 6]: 2.52
SUV Normal liver ([1]; Patient 4, 3.5 mCi): 2.1
SUV Metastasis ([1]; Patient 5, right lung metastasis (most intense, diameter 5 cm), 3.5 mCi): 9.9
TLR ([1]; Patient 5, right lung metastasis, 3.5 mCi): 3.67
least intense SUV ([1]; Patient 5, tumor with a diameter of 1.5 cm): 2.9
SUV Normal liver ([1]; Patient 5, 3.5 mCi): 2.7
average TLR ([1]; five patients with metastatic breast cancer, 3.5 mCi): 2.7±0.8
Radiation dose to organ from 1 mCi ^18F-FDG ([2]; Bone marrow): 0.04 cGy/mCi
Radiation dose to organ from 1 mCi ^18F-FDG ([2]; Brain): 0.17 cGy/mCi
Radiation dose to organ from 1 mCi ^18F-FDG ([2]; Heart wall): 0.25 cGy/mCi
Radiation dose to organ from 1 mCi ^18F-FDG ([2]; Kidneys): 0.078 cGy/mCi
Radiation dose to organ from 1 mCi ^18F-FDG ([2]; Liver): 0.088 cGy/mCi
Radiation dose to organ from 1 mCi ^18F-FDG ([2]; Lungs): 0.056 cGy/mCi
Radiation dose to organ from 1 mCi ^18F-FDG ([2]; Ovaries): 0.041 cGy/mCi
Radiation dose to organ from 1 mCi ^18F-FDG ([2]; Testes): 0.041 cGy/mCi
Radiation dose to organ from 1 mCi ^18F-FDG ([2]; Urinary bladder): 0.27 cGy/mCi
tumor to liver ratio (TLR), mean±SD [3]: 1.6±0.4

Source: US20060018827A1, “Positron therapy of inflammation, infection and disease” (priority 2004, published 2006)
